Square brackets hold non-standard residues; d marks the D form. Peptide text beside a SMILES is read from it. * marks the point of attachment. FITC = O=C1OC2(c3ccc(O)cc3Oc3cc(O)ccc32)c2ccc(NC(=S)*)cc21; pT = C[C@@H](OP(=O)(O)O)[C@H](N)C(=O)O; pS = N[C@@H](COP(=O)(O)O)C(=O)O
Tests used:
APLF FHA domain [1] = target: T1, APLF FHA domain (Homo sapiens, UniProt Q8IW19); assay: Fluorescence polarization peptide binding assay; settings: FP; for Kd: room temperature
T1 construct: His6 (N, cleaved yes); TEV cleavage site (N, cleaved yes); made in house; host or cells: Escherichia coli Rosetta2 (DE3)
T1 sequence (Q8IW19 1-108 limits assumed): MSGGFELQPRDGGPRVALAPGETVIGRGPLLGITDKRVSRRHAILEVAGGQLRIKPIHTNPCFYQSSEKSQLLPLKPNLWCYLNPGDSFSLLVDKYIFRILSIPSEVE
Method: Apparent dissociation constants for peptide-protein interactions were determined based on fluorescence polarization measurements of fluorescein-labeled peptides on a POLARstar Omega fluorescence polarization (FP) reader (BMG Labtech) using an excitation wavelength of 485 nm and the emission measured at 520 nm at room temperature. XRCC1 phosphopeptides used in FP studies (Table 1) were labeled with an N-terminal FITC-Gly-Gly fluorophore. Measurements were made as a function of pH in the range from pH 7.4 to 5.5 in FP buffer consisting of 25 mM HEPES, 25 mM MES, 150 mM NaCl, 1 mM EDTA, 2 mM DTT and 0.05% Tween 20. Samples of the APLF FHA domain in FP buffer were prepared at pH 7.4, 7.0, 6.5, 6.0 and 5.5. Samples corresponding to each titration step were put in a 96-well black flat-bottomed plate and the fluorescence emission polarization was determined. The FP results were normalized to a 0–1 scale after curve-fitting for the direct comparison of results from different conditions. Data for the interaction of a phosphopeptide (L) with APLF FHA (M) were fit to a single-site binding equation as described previously ([39]). All phosphopeptides used were synthesized by either GenScript or Thermo Fisher.

APLF FHA domain [2] = target: T1, APLF FHA domain; assay: 1H,15N-HSQC NMR titration with inorganic anions; type: binding; settings: for amide shift changes of U-[15N] APLF FHA produced by the anion: 0-150 mM titrant, 0.1 mM protein; for Kd: amide shifts of the more strongly shifted resonances, 25 mM HEPES, 25 mM MES, 150 mM NaCl, 1 mM EDTA, 1:1 binding, read-out: phosphate Kd
Method: (§1) All NMR experiments were performed at 35°C on a Varian INOVA 500 MHz spectrometer equipped with a triple-resonance, pulsed-field gradient cryo-probe, with the exception of the ^31P experiments, which were collected on an Agilent/Varian DD2 600 MHz spectrometer equipped with a heteronuclear broadband probe. The backbone chemical shift assignments were made from 3D HNCACB, CBCA(CO)NH, HNCA, HN(CO)CA, HNCO and HN(CA)CO experiments that were obtained using Agilent BioPack pulse sequences (Agilent). The 3D experiments were acquired with non-uniform sampling to speed up the data acquisition ([36],[37]). Since several of the amide resonances were broadened as a result of the intermediate amide proton exchange dynamics at pH 7.4, a low pH buffer, 25 mM sodium citrate, 50 mM NaCl, and 1 mM EDTA, pH 5.5, was used for the amide backbone assignments. For phosphopeptide titration experiments, 2D ^1H,^15N-HSQC spectra were acquired on a sample containing 0.1 mM U-[^15N] APLF-FHA in 25 mM HEPES, 25 mM MES, 150 mM NaCl, 1 mM EDTA, pH 7.4 as a function of phosphopeptide concentration. The interaction of sodium phosphate, sodium sulfate, and sodium ethylsulfate with U-[^15N] APLF FHA sample was also studied by monitoring the ^1H,^15N-HSQC spectrum of the labeled protein as a function of the anion concentration. The volume of peptide or anion added never exceeded more than 10% of the total volume.

[3] = free amino acid; cited from earlier work
Text: This selectivity implies that most phosphopeptides formed by CK2-dependent phosphorylation contain multiple anionic residues and are often multiply phosphorylated.

APLF FHA domain [4] = target: T1, APLF FHA domain; assay: 1H,15N-HSQC NMR phosphopeptide titration; type: binding; settings: pH 7.4, 0.1 mM U-[15N] APLF FHA, 25 mM HEPES, 25 mM MES, 150 mM NaCl, 1 mM EDTA, 35°C
Method: as §1

[5] = 31P NMR pH titration of free phosphopeptides (pK determination); type: physicochemical; settings: pH 8.5 to 4.0, 0.5 mM peptide, 50 mM sodium acetate, 50 mM sodium cacodylate, 1 mM EDTA, TMP reference, Henderson-Hasselbalch fit
Method: 1D ^31P-NMR experiments were employed to determine the pK values of the phosphate groups in phosphopeptides and to characterize the interaction of the phosphopeptide with the APLF-FHA domain. Experimental parameters included a ^31P offset of 2.48 ppm, a sweep width of 20 ppm, an acquisition time of 1 sec, a relaxation delay of 1 sec, and 1024 scans were acquired per experiment. Phosphopeptide concentrations of 0.5 mM were used in all 1D ^31P NMR experiments. A two-dimensional selective ^1H,^31P-HSQC experiment ([38]) was used to assign the phosphoserine and phosphothreonine resonances. […]
Measurements of the pK values of the free phosphopeptides were performed in 50 mM sodium acetate, 50 mM sodium cacodylate, 1 mM EDTA as a function of pH with 0.5 mM tri-methylphosphate (TMP) added as a chemical shift reference. Small amounts of 0.1 N NaOH or HCl were titrated to vary the pH in the range from 8.5 to 4.0 in 0.2–0.4 pH decrements. pK values were determined by fitting the pH-dependent chemical shift data to a Henderson–Hasselbalch equation: where δP and δU correspond to the protonated and unprotonated chemical shifts. The dependence of the phosphopeptide ^31P NMR shifts as a function of APLF FHA domain concentration were determined in 25 mM HEPES, 25 mM MES, 150 mM NaCl, 1 mM EDTA, pH 7.4, with 0.25 mM TMP added as a chemical shift reference. […]

APLF FHA domain [6] = target: T1, APLF FHA domain; assay: NMR lineshape simulation of amide exchange data; type: binding; settings: two-site exchange lineshape simulation; pH 7.4; 35°C
Method: as §1, with “APLF-FHA in 25 mM HEPES, 25 mM MES, 150 mM NaCl, 1 mM EDTA, pH 7.4 as a function of phosphopeptide concentration. The interaction of sodium phosphate, sodium sulfate, and sodium ethylsulfate with U-[^15N] APLF FHA sample was also studied by monitoring the ^1H,^15N-HSQC spectrum of the labeled protein as a function of the anion concentration. The volume of peptide or anion added never exceeded more than 10% of the total volume.” left out
The lineshape simulations utilized a Mathematica algorithm (Wolfram Research, Champaign, IL, USA) based on the two-site exchange formalism given by Rogers and Woodbrey ([40]). The fraction of bound ligand, pB, is initially calculated using the above relation, the FHA domain and peptide concentrations and an assumed Kd value which is then varied to optimize the agreement with the experimental spectra. […]

[7] = pH 7.4, N-terminal FITC-Gly-Gly labelled peptide, 25 mM HEPES, 25 mM MES, 150 mM NaCl, 1 mM EDTA, 2 mM DTT, 0.05% Tween 20, single-site fit
[8] = pH 6.0, FITC-Gly-Gly labelled peptide, FP buffer
[9] = pH 6.5, FITC-Gly-Gly labelled peptide, FP buffer

For C[C@H](NC(=O)[C@H](Cc1ccc(O)cc1)NC(=O)[C@@H]1CCCN1C(=O)[C@H](CC(=O)O)NC(=O)CNC(=O)CNC(=S)Nc1ccc2c(c1)C(=O)OC21c2ccc(O)cc2Oc2cc(O)ccc21)C(=O)NCC(=O)N[C@@H](CO)C(=O)N[C@H](C(=O)N[C@@H](CC(=O)O)C(=O)N[C@@H](CCC(=O)O)C(=O)N[C@@H](CC(N)=O)C(=O)N[C@H](C(=O)N[C@@H](CC(=O)O)C(=O)N[C@@H](CO)C(=O)N[C@@H](CCC(=O)O)C(=O)N[C@@H](CCC(=O)O)C(=O)N[C@@H](Cc1c[nH]cn1)C(=O)N[C@@H](CCC(N)=O)C(=O)N[C@@H](CCC(=O)O)C(=O)O)[C@@H](C)O)[C@@H](C)OP(=O)(O)O [XRCC1SpT-18] ({FITC}-GGDPYAGS[pT]DENTDSEEHQE-OH; C-terminus assumed), the Kd (APLF FHA domain [1]; [7]) was greater than 20 µM.
For CCOS(=O)(=O)[O-].[Na+] [ethylsulfate, sodium ethylsulfate], the “amide shift changes of U-[15N] APLF FHA produced by the anion” value (“amide shift changes” below) (APLF FHA domain [2]; pH 7.4) was “fails to produce any significant amide shifts” and the “amide shift changes” value (APLF FHA domain [2]; pH 7.4, listed as sodium ethylsulfate) was “negligible shifts”.
Compound C[C@H](NC(=O)[C@H](Cc1ccc(O)cc1)NC(=O)[C@@H]1CCCN1C(=O)[C@@H](N)CC(=O)O)C(=O)NCC(=O)N[C@@H](CCC(=O)O)C(=O)N[C@H](C(=O)N[C@@H](CC(=O)O)C(=O)N[C@@H](CCC(=O)O)C(=O)N[C@@H](CC(N)=O)C(=O)N[C@H](C(=O)N[C@@H](CC(=O)O)C(=O)N[C@@H](CO)C(=O)N[C@@H](CCC(=O)O)C(=O)N[C@@H](CCC(=O)O)C(=O)N[C@@H](Cc1c[nH]cn1)C(=O)N[C@@H](CCC(N)=O)C(=O)N[C@@H](CCC(=O)O)C(=O)O)[C@@H](C)O)[C@@H](C)OP(=O)(O)O [XRCC1EpT-18] (H-DPYAGE[pT]DENTDSEEHQE-OH) has a Kd (APLF FHA domain [1]; [8]) greater than 300 µM, a Kd (APLF FHA domain [1]; [9]) greater than 50 µM and a Kd (APLF FHA domain [1]; [7]) of 9.94 ± 4.6 µM.
In the case of C[C@@H](OP(=O)(O)O)[C@H](N)C(=O)O [phosphothreonine], the “phosphate pK (dianionic/monoanionic)” value [3] is given as roughly 5.95.
With C[C@H](NC(=O)[C@H](Cc1ccc(O)cc1)NC(=O)[C@@H]1CCCN1)C(=O)NCC(=O)N[C@@H](COP(=O)(O)O)C(=O)N[C@H](C(=O)N[C@@H](CC(=O)O)C(=O)N[C@@H](CCC(=O)O)C(=O)N[C@@H](CC(N)=O)C(=O)O)[C@@H](C)OP(=O)(O)O [XRCC1pSpT-9] (H-PYAG[pS][pT]DEN-OH) the Kd (APLF FHA domain [4]) was 80 µM.
In the case of “VYDEpSpTDEESEN [XRCC4pSpT-12, 12-residue XRCC4 peptide phosphorylated on Ser232/Thr233]”, the “pK of pSer phosphate” value [5] is reported as 6.90 and the “pK of pThr phosphate” value [5] is reported as 7.22.
For O=S(=O)([O-])[O-].[Na+].[Na+] [sulfate, sodium sulfate], the “amide shift changes” value (APLF FHA domain [2]; pH 7.4) was “perturbs the same resonances that are sensitive to phosphate, although to a lesser extent”.
With O=P(O)(O)O [phosphate, sodium phosphate] the Kd (APLF FHA domain [2]; pH 5.5) was 92500 ± 17800 µM and the Kd (APLF FHA domain [2]; pH 7.4) was 14100 ± 3700 µM.
With C[C@H](NC(=O)[C@H](Cc1ccc(O)cc1)NC(=O)[C@@H]1CCCN1C(=O)[C@H](CC(=O)O)NC(=O)CNC(=O)CNC(=S)Nc1ccc2c(c1)C(=O)OC21c2ccc(O)cc2Oc2cc(O)ccc21)C(=O)NCC(=O)N[C@@H](COP(=O)(O)O)C(=O)N[C@H](C(=O)N[C@@H](CC(=O)O)C(=O)N[C@@H](CCC(=O)O)C(=O)N[C@@H](CC(N)=O)C(=O)N[C@@H](CCC(=O)O)C(=O)N[C@@H](CC(=O)O)C(=O)N[C@@H](CCC(=O)O)C(=O)N[C@@H](CCC(=O)O)C(=O)N[C@@H](CCC(=O)O)C(=O)N[C@@H](Cc1c[nH]cn1)C(=O)N[C@@H](CCC(N)=O)C(=O)N[C@@H](CCC(=O)O)C(=O)O)[C@@H](C)OP(=O)(O)O [XRCC1pSpTEE-18] ({FITC}-GGDPYAG[pS][pT]DENEDEEEHQE-OH; C-terminus assumed) the “fold reduction of Kd relative to XRCC1pSpT-18” value (APLF FHA domain [1]; pH 7.4) was 10 fold.
In the case of C[C@H](NC(=O)[C@H](Cc1ccc(O)cc1)NC(=O)[C@@H]1CCCN1C(=O)[C@H](CC(=O)O)NC(=O)CNC(=O)CNC(=S)Nc1ccc2c(c1)C(=O)OC21c2ccc(O)cc2Oc2cc(O)ccc21)C(=O)NCC(=O)N[C@@H](COP(=O)(O)O)C(=O)N[C@H](C(=O)N[C@@H](CC(=O)O)C(=O)N[C@@H](CCC(=O)O)C(=O)N[C@@H](CC(N)=O)C(=O)N[C@H](C(=O)N[C@@H](CC(=O)O)C(=O)N[C@@H](CO)C(=O)N[C@@H](CCC(=O)O)C(=O)N[C@@H](CCC(=O)O)C(=O)N[C@@H](Cc1c[nH]cn1)C(=O)N[C@@H](CCC(N)=O)C(=O)N[C@@H](CCC(=O)O)C(=O)O)[C@@H](C)O)[C@@H](C)OP(=O)(O)O [XRCC1pSpT-18] ({FITC}-GGDPYAG[pS][pT]DENTDSEEHQE-OH; C-terminus assumed), the “τB, lifetime of the protein-peptide complex” value (APLF FHA domain [6]) is reported as 0.9 ms, the Kd (APLF FHA domain [1]; pH 5.5, FITC-Gly-Gly labelled peptide, FP buffer) is reported as greater than 60 µM and the Kd (APLF FHA domain [1]; [8]) is reported as greater than 25 µM. For the same compound, the “fold reduction of binding affinity at pH 6.0” value (APLF FHA domain [1]; pH 6.0 relative to pH 7.4) was greater than 8 fold, the Kd (APLF FHA domain [1]; [9]) was 8.23 ± 1.89 µM and the “fold reduction of binding affinity at pH 6.5” value (APLF FHA domain [1]; pH 6.5 relative to pH 7.4) was “less than 2.5 fold”. It also gave a Kd (APLF FHA domain [1]; pH 7.0, FITC-Gly-Gly labelled peptide, FP buffer) of 4.67 ± 0.04 µM and a Kd (APLF FHA domain [1]; [7]) of 3.31 ± 0.15 µM.
In the case of N[C@@H](COP(=O)(O)O)C(=O)O [phosphoserine], the “phosphate pK (dianionic/monoanionic)” value [3] is listed as “approximately 5.75”.

Reference: PMC5716189, “Characterization of the APLF FHA–XRCC1 phosphopeptide interaction and its structural and functional implications” (Nucleic Acids Research, 2017)
